Non-standard residues stand in square brackets, D forms with d. No end group written: not given here. Cit = NC(=O)NCCC[C@H](N)C(=O)O
Columns and labels:
Assay type in all cases: binding, human
[1] = system: sera from control patients and normal donors; assay: ELISA with sera from patients with other diseases and normal sera (specificity); conditions: for % positive sera: cyclic peptide; for Specificity [%] cyclic: cyclic variant; for Specificity [%] cyclic / Specificity [%] linear: control patients and normal donors of Table 2; for Specificity [%] linear: linear variant
Description: (§1) The most interesting peptides were synthesised in a slightly larger quantity to form a linear and a cyclic variant, and in most cases in a citrulline and arginine (=control) variant. These peptides were tested for reactivity with a series of sera from RA patients. The peptides were coated to ELISA plates and incubated with sera from RA patients. Each serum was tested in duplicate. Sera from healthy persons were used as negative control.
The above table represents ELISAs with sera obtained from patients suffering from RA and from patients suffering from various other autoimmune diseases. […] The arginine variant of peptide 0002-36 (R on position 0 and +2, i.e., instead of Cit in the formula) was also tested and shown to be negative with all tested RA and normal sera.
(§2) Using the above-described methods, seven XG peptide units were tested for reactivity with the 318 sera mentioned in Table 2 from patients suffering from rheumatoid arthritis. The specificity was determined with the aid of sera mentioned in Table 2 from control patients and normal donors.
(§3) In accordance with the methods described in this document, five XnonG peptide units were tested for reactivity with the same 318 sera mentioned in Table 2 from patients suffering from rheumatoid arthritis. Specificity was again determined with the aid of the sera mentioned in Table 2 from control patients and normal donors.

[2] = system: autoantibodies from patients suffering from rheumatoid arthritis (RA sera); assay: ELISA of coated peptides with sera from RA patients; conditions: for Sensitivity [%] cyclic / Sensitivity [%] Linear: 318 RA sera; for Sensitivity [%] Linear: linear variant; for assessment of cyclic variants (in words): cysteine-bromoacetic acid cyclisation
Description: as §1, with “control. […]” for “control.”
as §2, §3

[3] = system: XG-negative sera (RA sera comprising no XG reactive antibodies); assay: ELISA of XnonG peptides with RA sera that do not react with XG peptides; conditions: for Sensitivity [%] cyclic: cyclic variant; for Sensitivity [%] cyclic / Sensitivity [%] Linear: 80 of the 318 RA sera that did not react with any XG peptide of Table 6; for Sensitivity [%] Linear: linear variant
Description: as §1
The percentages mentioned in table 8 therefore show the percentage of the sera that did comprise antibodies to XnonG peptide units but comprised no XG reactive antibodies.

[4] = ELISA with 186 RA sera, cyclic variants
[5] = XnonG peptide units, cyclic variant
[6] = XG peptide units, cyclic variant
[7] = two cohorts of RA sera, in total 318 sera

0002-36 (cyclic): cyclic variant of peptide 0002-36, cyclisized by the cysteine-bromoacetic acid method (HQFRF[Cit]G[Cit]SRAA; thioether (positions not given here); not fully specified (bridges); printed as H Q F R F Cit G Cit S R A A; also: cyclised by cysteine-bromoacetic acid method, no Cys in given chain, ring places not given here)
% positive sera ([1]; Colitis ulcerosa sera, N=40): 0% | % positive sera ([1]; Crohn's disease sera, N=40): 0% | % positive sera ([1]; Infectious diseases (malaria, chlamydia, mycoplasma, etc.) sera, N=250): 1% | % positive sera ([1]; Normal human serum, N=84): 0% | % positive sera ([1]; Osteoarthritis sera, N=29): 0% | % positive sera ([1]; PM, Polymyositis sera, N=11): 0% | % positive sera ([1]; Prim Sjögren's syndrome sera, N=34): 3% | % positive sera ([1]; Psoriasis sera, N=10): 0% | % positive sera ([1]; SSc Scleroderma sera, N=10): 0% | % positive sera ([1]; Systemic Lupus Erythematodes sera, N=24): 0% | % positive sera ([1]; Vasculitis sera, N=30): 0% | positive sera ([2]; ELISA with 132 RA sera): 71% | positive sera (number/total) ([2]; ELISA with 132 RA sera): 94/132 | positive sera [2, 4]: 71% | % positive sera ([2]; RA sera, N=318, cyclic peptide): 71%

0002-63 (cyclic): cyclic variant of peptide 0002-63 (HQFRF[Cit]GWSRAA; thioether (positions not given here); also: cyclised by cysteine-bromoacetyl thioether, Cys and bromoacetyl not shown in chain)
positive sera [2, 4]: 71%

A R F Q M Cit H Cit R L I R (ARFQM[Cit]H[Cit]RLIR) [0107-35]
Specificity [%] cyclic ([1]; XnonG peptide units): 99% | Specificity [%] linear ([1]; XnonG peptide units): 98% | Sensitivity [%] cyclic [2, 5]: 61% | Sensitivity [%] Linear ([2]; XnonG peptide units): 52% | reacts with % of the sera that are not reactive with cyclic 0002-36 ([3]; cyclic form): 18% | Sensitivity [%] cyclic [3]: 18% | Sensitivity [%] Linear [3]: 17%

A R F Q M R H Cit R L I R (ARFQMRH[Cit]RLIR) [0113-30]
Specificity [%] cyclic ([1]; XnonG peptide units): 100% | Specificity [%] linear ([1]; XnonG peptide units): 99% | Sensitivity [%] cyclic [2, 5]: 71% | Sensitivity [%] Linear ([2]; XnonG peptide units): 49% | Sensitivity [%] cyclic [3]: 19% | Sensitivity [%] Linear [3]: 18%

G V Y L V R Cit L Cit M M R [0218-36]
Specificity [%] cyclic ([1]; XnonG peptide units): 98% | Specificity [%] linear ([1]; XnonG peptide units): 98% | Sensitivity [%] cyclic [2, 5]: 70% | Sensitivity [%] Linear ([2]; XnonG peptide units): 50% | Sensitivity [%] cyclic [3]: 17% | Sensitivity [%] Linear [3]: 17%

GFFSA[Cit]GHRPLD [0101-7]
reacted with % of RA sera ([2]; cyclic variant, 186 RA-sera): 45% | reacted with % of the sera ([2]; linear peptide): 55%

H Q F R F Cit G Cit S R A A (HQFRF[Cit]G[Cit]SRAA) [0002-36 (linear)]
positive sera ([2]; ELISA with 132 RA sera): 61% | positive sera (number/total) ([2]; ELISA with 132 RA sera): 80/132

H Q F R F Cit G Cit S R A A (HQFRF[Cit]G[Cit]SRAA) [0002-36]
Specificity [%] cyclic ([1]; XG peptide units): 99% | Specificity [%] linear ([1]; XG peptide units): 99% | reactivity with RA sera (in words) [2]: very satisfactory | Sensitivity [%] cyclic [2, 6]: 71% | Sensitivity [%] Linear ([2]; XG peptide units): 61% | assessment of cyclic variants (in words) ([2]; cyclic variants): of interest | OD-values, cyclic versus linear variant [2, 7]: much higher | frequency of reaction, cyclic versus linear variant [2, 7]: react more frequently (and better) than the linear variant

H Q K R G Cit G W S R A A (HQKRG[Cit]GWSRAA) [0002-27]
Specificity [%] cyclic ([1]; XG peptide units): 98% | Specificity [%] linear ([1]; XG peptide units): 98% | Sensitivity [%] cyclic [2, 6]: 71% | Sensitivity [%] Linear ([2]; XG peptide units): 56% | assessment of cyclic variants (in words) ([2]; cyclic variants): of interest

H Q K W R Cit G R S Cit A A (HQKWR[Cit]GRS[Cit]AA) [0002-37]
Specificity [%] cyclic ([1]; XG peptide units): 98% | Specificity [%] linear ([1]; XG peptide units): 98% | Sensitivity [%] cyclic [2, 6]: 70% | Sensitivity [%] Linear ([2]; XG peptide units): 60%

H Q R R T Cit G G S R A A (HQRRT[Cit]GGSRAA) [0002-31]
Specificity [%] cyclic ([1]; XG peptide units): 98% | Specificity [%] linear ([1]; XG peptide units): 98% | Sensitivity [%] cyclic [2, 6]: 69% | Sensitivity [%] Linear ([2]; XG peptide units): 51% | assessment of cyclic variants (in words) ([2]; cyclic variants): of interest

H Q R R V Cit G W S R A A (HQRRV[Cit]GWSRAA) [0002-29]
Specificity [%] cyclic ([1]; XG peptide units): 98% | Specificity [%] linear ([1]; XG peptide units): 98% | Sensitivity [%] cyclic [2, 6]: 70% | Sensitivity [%] Linear ([2]; XG peptide units): 57% | assessment of cyclic variants (in words) ([2]; cyclic variants): of interest

HQFRF[Cit]GWSRAA [0002-63]
Specificity [%] cyclic ([1]; XG peptide units): 98% | Specificity [%] linear ([1]; XG peptide units): 98% | reactivity with RA sera (in words) [2]: very satisfactory | Sensitivity [%] cyclic [2, 6]: 71% | Sensitivity [%] Linear ([2]; XG peptide units): 60% | assessment of cyclic variants (in words) ([2]; cyclic variants): of interest

HQRKW[Cit]GASRAA [0002-32]
Specificity [%] cyclic ([1]; XG peptide units): 98% | Specificity [%] linear ([1]; XG peptide units): 98% | Sensitivity [%] cyclic [2, 6]: 71% | Sensitivity [%] Linear ([2]; XG peptide units): 61%

HQWNR[Cit]GWSRAA [0002-35]
reactivity with RA sera (in words) [2]: very satisfactory

K P Y T V Cit K F M R R P (KPYTV[Cit]KFMRRP) [0107-32]
Specificity [%] cyclic ([1]; XnonG peptide units): 98% | Specificity [%] linear ([1]; XnonG peptide units): 98% | Sensitivity [%] cyclic [2, 5]: 63% | Sensitivity [%] Linear ([2]; XnonG peptide units): 48% | further % added ([3]; cyclic peptide, added to cyclic 0107-35): 8% | Sensitivity [%] cyclic [3]: 18% | Sensitivity [%] Linear [3]: 15%

Y S F V W Cit S H A R P R (YSFVW[Cit]SHARPR) [0107-45]
Specificity [%] cyclic ([1]; XnonG peptide units): 99% | Specificity [%] linear ([1]; XnonG peptide units): 98% | Sensitivity [%] cyclic [2, 5]: 69% | Sensitivity [%] Linear ([2]; XnonG peptide units): 51% | Sensitivity [%] cyclic [3]: 18% | Sensitivity [%] Linear [3]: 16%

arginine variant of peptide 0002-36: R on position 0 and +2, i.e., instead of Cit in the formula; control variant (HQFRFRGRSRAA) [reference compound]
reactivity with normal sera ([1]; all tested normal sera): negative | reactivity with RA sera ([2]; all tested RA sera): negative
